Laboratory results as given in article PMC9959130, “Effects of Side Chain and Peptide Bond Modifications on the Targeting Properties of Stabilized Minigastrin Analogs” (Pharmaceuticals, 2023).
Like-named read-outs stand apart in the source and are kept apart here. Where a SMILES comes first, the peptide text is derived from it. [ ]: non-standard residue; d: D form. The star is where a group is joined. DOTA = O=C(O)CN1CCN(CC(=O)O)CCN(CC(=O)*)CCN(CC(=O)O)CC1; 1Nal = N[C@@H](Cc1cccc2ccccc12)C(=O)O; NMeNle = CCCC[C@H](NC)C(=O)O

How the values were obtained:
[1] = molecular target: T1, human CCK2R (Homo sapiens, UniProt P32239); assay: Competitive binding assay against [125I][3-iodo-Tyr12,Leu15]gastrin-I on A431-CCK2R cells; conditions: unlabeled peptide, 1 h at RT, radioligand [125I][3-iodo-Tyr12,Leu15]gastrin-I, mean ± sd of three independent experiments in triplicates
T1 construct: expressed in transfected cells; host or cells: A431 human epidermoid carcinoma cells, stably transfected (A431-CCK2R); originally provided by Dr. Luigi Aloj
T1 sequence (P32239 1-447): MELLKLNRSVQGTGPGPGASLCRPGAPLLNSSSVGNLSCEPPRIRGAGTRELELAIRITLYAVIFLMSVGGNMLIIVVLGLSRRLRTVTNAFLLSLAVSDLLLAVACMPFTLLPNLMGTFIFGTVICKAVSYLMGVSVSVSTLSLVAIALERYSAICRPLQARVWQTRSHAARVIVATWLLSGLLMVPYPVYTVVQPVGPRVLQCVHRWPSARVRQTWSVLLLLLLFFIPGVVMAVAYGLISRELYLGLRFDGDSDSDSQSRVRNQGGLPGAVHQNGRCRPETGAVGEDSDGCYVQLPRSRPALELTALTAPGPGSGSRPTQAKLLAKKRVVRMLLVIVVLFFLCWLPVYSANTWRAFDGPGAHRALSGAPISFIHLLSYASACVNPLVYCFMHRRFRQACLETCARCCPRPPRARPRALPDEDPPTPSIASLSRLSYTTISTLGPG
Excerpt: (§1) A431 human epidermoid carcinoma cells overexpressing human CCK2R through stable transfection (A431-CCK2R) and the same cell line transfected with the empty vector (A431-mock) were used for cell assays. The cells are constantly available in our laboratory and were originally provided by Dr. Luigi Aloj. All cell culture media and reagents were obtained from Invitrogen Corporation (Lofer, Austria) or Sigma-Aldrich (Darmstadt, Germany). Dulbecco’s modified Eagle’s medium (DMEM) supplemented with 10% (v/v) fetal bovine serum and 1% of 100x penicillin−streptomycin−glutamine was used for cell culture. The cells were passaged three times per week using a 10x 2.5% trypsin-EDTA solution in a 1:2–1:3 ratio.
Receptor affinity studies of the DOTA-conjugates for the CCK2R was competitively evaluated against [^125I][3-iodo-Tyr^12,Leu^15]gastrin-I. The binding assays were performed in 96-well filter plates (MultiScreenHTS-FB, Merck Group, Darmstadt, Germany) as previously described. A431-CCK2R cells (200,000–400,000/well) were incubated for 1 h at RT with the peptides (concentration range of 0.01–1000 nM) and [^125I][3-iodo-Tyr^12,Leu^15]gastrin-I (~25,000 cpm). The incubation was arrested by filtering the medium by vacuum and rinsing twice rapidly with ice-cold binding assay buffer (10 mM TRIS/139 mM NaCl, pH 7.3). The filters were removed from the plate, transferred into 4.5 mL tubes and measured in the γ-counter. Data were normalized from 0 to 100 for graphical representation of exemplary binding curves. Origin software (Microcal Origin 6.1, Northampton, MA, USA) was used to calculate the half maximal inhibitory concentration (IC50) values by nonlinear regression and expressed as mean ± sd for three independent experiments performed in triplicates. An additional cell uptake study at 2 h after incubation was performed for DOTA-[(N-Me)1Nal^8]MGS5 radiolabeled with gallium-68 and lutetium-177 (see Figure S4 of the Supplementary Materials).

[2] = molecular target: T1, human CCK2R; assay: Calcium mobilization assay (fluo-4 AM) on A431-CCK2R cells; type: cell-based; conditions: normalized to 10^−6 M pentagastrin, mean ± SEM of at least three independent experiments in triplicates
Excerpt: as §1
Analog-induced receptor activation was evaluated by a calcium mobilization assay using the calcium-sensitive dye fluo-4 AM (ThermoFisher Scientific, Montigny-Le-Bretonneux, France), as previously described. Briefly, A431-CCK2R cells were seeded (60,000/well) in flat clear bottom black 96-well plates (Corning, Bagneaux-sur-Loing, France) coated with poly-L-ornithine (100 µg/mL, 1 h, 37 °C) (Sigma Aldrich, Saint Quentin Fallavier, France). Cytosolic Ca^2+ variations were measured before and after application of 50 µL of graded concentrations of the investigated peptides in the vicinity of the cells, and the effects on Ca^2+ mobilization were measured. Data were background corrected and normalized for the amplitudes caused by the medium alone (0%, no self-effect) or 10^−6 M pentagastrin (100%, maximal Ca^2+ mobilization response). Prism 4.0 software was used to calculate the EC50 values and the results were expressed as mean ± SEM for at least three independent experiments performed in triplicates.

[3] = Distribution coefficient (LogD) in octanol/PBS; type: physicochemical; conditions: radiolabeled peptide (111In-labeled where the label names no radiometal), shake-flask octanol/PBS, 100 pmol/mL, 15 min shaking at 1500 rpm, γ-counter, mean ± SD, n = 8
Protocol: The distribution coefficient (LogD) in octanol/PBS was determined by mixing 0.5 mL of the radiolabeled DOTA peptides diluted in PBS (100 pmol/mL) and 0.5 mL octanol in a 1.5 mL microcentrifuge tube (n = 8). After shaking for 15 min (MS3 Basic, IKA, Staufen, Germany) at 1500 rpm and a waiting time of 10 min to ensure appropriate separation of the two phases, 100 µL aliquots of each phase were pipetted into 4.5 mL tubes. The tubes were measured using a γ-counter (2480 Wizard2 3″, PerkinElmer Life Sciences and Analytical Instruments, formerly Wallac Oy, Turku, Finland) and the LogD value was determined using following equation: LogD=Log(cpmoctanol phase/cpmPBS phase)

[4] = Binding to serum proteins (incubation in human serum, Sephadex G-50 size exclusion chromatography); type: in vitro ADME; conditions: 37 °C; for Binding to Serum Proteins (%): 500 pmol/mL
Protocol: Protein binding was determined by incubation of the radiolabeled peptides in human serum at 37 °C (500 pmol/mL, n = 2). For the time points of 1, 4, and 24 h after incubation, samples of 25 µL were subjected to Sephadex G-50 size exclusion chromatography (GE Healthcare Illustra, Little Chalfont, UK). The column and the eluate were measured using the γ-counter and the percentage of protein binding was calculated.

[5] = In vitro stability in human serum (intact radiopeptide by radio-HPLC); type: in vitro ADME; conditions: fresh human serum, 37 °C, n = 2; for Intact Radiopeptide in Human Serum (%): 1000 pmol/mL
Protocol: (§2) In vitro stability studies were performed in human serum (n = 2). The radiolabeled peptides (1000 pmol/mL) were incubated at 37 °C and a sample of 100 μL was taken at 1, 4, and 24 h after incubation. After the precipitation of proteins with ACN at 1:1.5 (v/v), centrifugation (14,000 rpm, 2 min, centrifuge 5424, Eppendorf AG, Germany) and dilution with water at 1:1 (v/v), an aliquot of 100 μL of this solution was analyzed by HPLC. Radioligand breakdown was monitored and the percentage of intact radiopeptide was calculated using Chromeleon Dionex Software (Version 7.2.9.11323). Additionally, the radiolabeled peptides (1000 pmol/mL) were incubated in PBS (n = 1) at room temperature to confirm the complex stability as a control.

[6] = Complex stability in PBS; type: physicochemical; conditions: 1000 pmol/mL in PBS, room temperature, 4 h after incubation, n = 1
Protocol: as §2

[7] = radiolabeled peptide (111In where no radiometal named), 24 h after incubation, Sephadex G-50, γ-counter, n = 2
[8] = radiolabeled peptide (111In where no radiometal named), 24 h after incubation

SMILES | IC50 [1] | EC50 [2] | LogD [3] | Binding to Serum Proteins (%) [4, 7] | Intact Radiopeptide in Human Serum (%) [5, 8] | other results
CCCC[C@@H](C(=O)N[C@@H](CC(=O)O)C(=O)N[C@@H](Cc1ccc2ccccc2c1)C(N)=O)N(C)C(=O)[C@H](Cc1c[nH]c2ccccc12)NC(=O)CNC(=O)[C@H](Cc1ccc(O)cc1)NC(=O)[C@H](C)NC(=O)[C@@H](CCC(=O)O)NC(=O)CN1CCN(CC(=O)O)CCN(CC(=O)O)CCN(CC(=O)O)CC1 [DOTA-[2Nal^8]MGS5] [listing 1 of 2 here] | 1.7 ± 0.1 nM | 12.8 ± 2.4 nM | – | – | – | –
CCCC[C@@H](C(=O)N[C@@H](CC(=O)O)C(=O)N[C@@H](Cc1cccc2ccccc12)C(=O)NC)N(C)C(=O)[C@H](Cc1c[nH]c2ccccc12)NC(=O)CNC(=O)[C@H](Cc1ccc(O)cc1)NC(=O)[C@H](C)NC(=O)[C@@H](CCC(=O)O)NC(=O)CN1CCN(CC(=O)O)CCN(CC(=O)O)CCN(CC(=O)O)CC1 [DOTA-MGS5[NHCH3]] [listing 1 of 2 here] | 13.2 ± 1.5 nM | 41 ± 14.7 nM | – | – | – | –
CCCC[C@@H](C(=O)N[C@@H](CC(=O)O)C(=O)N[C@@H](Cc1ccc2ccccc2c1)C(N)=O)N(C)C(=O)[C@H](Cc1c[nH]c2ccccc12)NC(=O)CNC(=O)[C@H](Cc1ccc(O)cc1)NC(=O)[C@H](C)NC(=O)[C@@H](CCC(=O)O)NC(=O)CN1CCN(CC(=O)O)CCN(CC(=O)O)CCN(CC(=O)O)CC1 [DOTA-[2Nal^8]MGS5] [listing 2 of 2 here] | – | – | −1.7 ± 0.2 | 34.6 ± 0.3% | 92.0 ± 1.2% | –
CCCC[C@@H](C(=O)N[C@@H](CC(=O)O)C(=O)N[C@@H](Cc1cccc2ccccc12)C(=O)NC)N(C)C(=O)[C@H](Cc1c[nH]c2ccccc12)NC(=O)CNC(=O)[C@H](Cc1ccc(O)cc1)NC(=O)[C@H](C)NC(=O)[C@@H](CCC(=O)O)NC(=O)CN1CCN(CC(=O)O)CCN(CC(=O)O)CCN(CC(=O)O)CC1 [DOTA-MGS5[NHCH3]] [listing 2 of 2 here] | – | – | −2.3 ± 0.2 | 40.9 ± 3.1% | 98.1 ± 0.4% | –
CCCC[C@@H](C(=O)N[C@@H](CC(=O)O)C(=O)N[C@@H](Cc1ccccc1)C(N)=O)N(C)C(=O)[C@H](Cc1c[nH]c2ccccc12)NC(=O)CNC(=O)[C@H](Cc1ccc(O)cc1)NC(=O)[C@H](C)NC(=O)[C@@H](CCC(=O)O)NC(=O)CN1CCN(CC(=O)O)CCN(CC(=O)O)CCN(CC(=O)O)CC1 [[^111In]In-DOTA-[Phe^8]MGS5, metal not drawn] ({DOTA}-[dE]AYGW[NMeNle]DF-NH2) | – | – | – | – | – | LogD ([3]; read-out: LogD): -3.19 ± 0.06; fraction unbound at 1 h, 500 pmol/mL ([4]; human, radiolabeled peptide, 1 h after incubation, Sephadex G-50, n = 2): 0.919; fraction unbound at 4 h, 500 pmol/mL ([4]; human, radiolabeled peptide, 4 h after incubation, Sephadex G-50, n = 2): 0.882; fraction unbound at 24 h, 500 pmol/mL [4, 7]: 0.798; remaining at 1 h, 1000 pmol/mL ([5]; human, radiolabeled peptide, 1 h after incubation): 99.5 ± 0.7%; remaining at 4 h, 1000 pmol/mL ([5]; human, radiolabeled peptide, 4 h after incubation): 92.5 ± 0.7%; remaining at 24 h, 1000 pmol/mL [5, 8]: 54 ± 0.8%
CCCC[C@@H](C(=O)N[C@@H](CC(=O)O)C(=O)N(C)[C@@H](Cc1cccc2ccccc12)C(N)=O)N(C)C(=O)[C@H](Cc1c[nH]c2ccccc12)NC(=O)CNC(=O)[C@H](Cc1ccc(O)cc1)NC(=O)[C@H](C)NC(=O)[C@@H](CCC(=O)O)NC(=O)CN1CCN(CC(=O)O)CCN(CC(=O)O)CCN(CC(=O)O)CC1 [DOTA-[(N-Me)1Nal^8]MGS5] [listing 1 of 2 here] | 2.7 ± 0.3 nM | 63.4 ± 19.9 nM | – | – | – | –
CCCC[C@@H](C(=O)N[C@@H](CC(=O)O)C(=O)N(C)[C@@H](Cc1cccc2ccccc12)C(N)=O)N(C)C(=O)[C@H](Cc1c[nH]c2ccccc12)NC(=O)CNC(=O)[C@H](Cc1ccc(O)cc1)NC(=O)[C@H](C)NC(=O)[C@@H](CCC(=O)O)NC(=O)CN1CCN(CC(=O)O)CCN(CC(=O)O)CCN(CC(=O)O)CC1 [[^177Lu]Lu-DOTA-[(N-Me)1Nal^8]MGS5] [metal not drawn] | – | – | – | – | – | Stability of the DOTA-complex in PBS [6]: 99%

The next lines start with results.

IC50 [1] | EC50 [2] | LogD [3] | Binding to Serum Proteins (%) [4, 7] | Intact Radiopeptide in Human Serum (%) [5, 8] | SMILES | other results
0.7 ± 0.1 nM | 6.3 ± 3.6 nM | – | – | – | CCCC[C@@H](C(=O)N[C@@H](CC(=O)O)C(=O)N[C@@H](Cc1ccccc1)C(N)=O)N(C)C(=O)[C@H](Cc1c[nH]c2ccccc12)NC(=O)CNC(=O)[C@H](Cc1ccc(O)cc1)NC(=O)[C@H](C)NC(=O)[C@@H](CCC(=O)O)NC(=O)CN1CCN(CC(=O)O)CCN(CC(=O)O)CCN(CC(=O)O)CC1 [DOTA-[Phe^8]MGS5] ({DOTA}-[dE]AYGW[NMeNle]DF-NH2) | –
– | – | −2.4 ± 0.3 | 39.8 ± 4.2% | 99.6 ± 0.1% | CCCC[C@@H](C(=O)N[C@@H](CC(=O)O)C(=O)N(C)[C@@H](Cc1cccc2ccccc12)C(N)=O)N(C)C(=O)[C@H](Cc1c[nH]c2ccccc12)NC(=O)CNC(=O)[C@H](Cc1ccc(O)cc1)NC(=O)[C@H](C)NC(=O)[C@@H](CCC(=O)O)NC(=O)CN1CCN(CC(=O)O)CCN(CC(=O)O)CCN(CC(=O)O)CC1 [DOTA-[(N-Me)1Nal^8]MGS5] [listing 2 of 2 here] | –
0.9 ± 0.8 nM | 43.5 ± 14.1 nM | – | – | – | CCCC[C@@H](C(=O)N[C@@H](CC(=O)O)C(=O)N[C@@H](Cc1cccc2ccccc12)C(N)=O)N(C)C(=O)[C@H](Cc1c[nH]c2ccccc12)NC(=O)CNC(=O)[C@H](Cc1ccc(O)cc1)NC(=O)[C@H](C)NC(=O)[C@@H](CCCCN)NC(=O)CN1CCN(CC(=O)O)CCN(CC(=O)O)CCN(CC(=O)O)CC1 [DOTA-[DLys^1]MGS5] ({DOTA}-[dK]AYGW[NMeNle]D[1Nal]-NH2) | –
